# What was measured:
# [1] = Stability test of crystalline forms (open container at 25°C/92% RH and 40°C/75% RH, sealed container at 60°C, 13 days; XRPD, HPLC, colour); assay type: physicochemical; conditions: for Initial purity (HPLC/SFC) Chemical purity / Initial purity (HPLC/SFC) Chiral purity: before storage
# Method: Placed in a open container at 25°C/92% RH and 40°C/75% RH for 13 days, respectively, or in a sealed container at 60°C for 13 days. […]
# (§1) Placed in a open container at 25 °C/92% RH and 40 °C/75% RH for 13 days, respectively, or in a sealed container at 60 °C for 13 days. […]
# as §1
# [2] = Hygroscopicity test by DVS, with XRPD after DVS; assay type: physicochemical; conditions: for 1st adsorption weight change percentage / 1st desorption weight change percentage / 2nd adsorption weight change percentage / 2nd desorption weight change percentage / XRPD after DVS test / moisture adsorbed (DVS): 25 °C; for XRPD after DVS test: after 40-0-95-0-40% RH
# Method: • DVS Intrinsic Dynamic Vapor Sorption Instrument • Gas flow rate 200 sccm, furnace temperature 25 °C.
# (§2) The hygroscopicity and dehydration behavior of crystalline form B was investigated by DVS. Humidity program: 25 °C, 40-0-95-0-40% RH, dm/dt 0.002, shortest equilibrium time was 60 min, and longest equilibrium time was 360 min. XRPD was also performed on the samples after DVS test to determine whether the crystal transformation occurred.
# as §2, with “E” for “B”
# as §2, with “G” for “B”
# [3] = Stability test of crystalline forms (open container at 25°C/92% RH and 40°C/75% RH, sealed container at 60°C, 13 days; XRPD, HPLC, colour); assay type: physicochemical; conditions: for Color / Chemical purity / Chiral purity / Solid (XRPD): Solid; for Chemical purity / Chiral purity: HPLC/SFC
# [4] = Pharmacokinetic evaluation in mice by gavage; assay type: in vivo; design: AUClast /D: unit not given here; conditions: CD1 male mice, oral, 30 mg/kg
# Method: CD1 male mice were selected and the test compound was administered orally. The drug concentration in plasma at different time points was quantitatively determined by LC/MS/MS to evaluate the pharmacokinetic characteristics of the test drug in mice.
# Experimental materials: CD1 Mouse (male, 20-30 g, 6-8 weeks old, Zhejiang Weitong Lihua).
# Blood was collected from the dorsal plantar vein at 0.25 h, 0.5 h, 1 h, 2 h, 4 h, 6 h, 8 h and 24 h after administration, placed in an anticoagulant tube containing EDTA-K2 and mixed, and centrifuged at 4°C and 4000 g for 5 minutes. The drug concentration in blood was determined by LC-MS/MS, and the relevant pharmacokinetic parameters were calculated by the non-compartmental linear/log trapezoidal method using Phoenix WinNonlin 6.3 pharmacokinetic software.
# [5] = relative humidity 0%, listed as Crystalline form E
# [6] = relative humidity 10%, listed as Crystalline form E
# [7] = relative humidity 20%, listed as Crystalline form E
# [8] = relative humidity 30%, listed as Crystalline form E
# [9] = relative humidity 40%, listed as Crystalline form E
# [10] = relative humidity 50%, listed as Crystalline form E
# [11] = relative humidity 60%, listed as Crystalline form E
# [12] = relative humidity 70%, listed as Crystalline form E
# [13] = relative humidity 80%, listed as Crystalline form E
# [14] = relative humidity 90%, listed as Crystalline form E
# [15] = relative humidity 95%, listed as Crystalline form E
# [16] = 25 °C/92% RH, open container, 1 week, listed as Crystalline form E
# [17] = 40 °C/75% RH, open container, 1 week, listed as Crystalline form E
# [18] = 60 °C, sealed container, 1 week, listed as Crystalline form E
# [19] = Solid, 40 °C/75% RH, open container, 13 days
# [20] = relative humidity 0%, listed as Crystalline form B
# [21] = relative humidity 10%, listed as Crystalline form B
# [22] = relative humidity 20%, listed as Crystalline form B
# [23] = relative humidity 30%, listed as Crystalline form B
# [24] = relative humidity 40%, listed as Crystalline form B
# [25] = relative humidity 50%, listed as Crystalline form B
# [26] = relative humidity 60%, listed as Crystalline form B
# [27] = relative humidity 70%, listed as Crystalline form B
# [28] = relative humidity 80%, listed as Crystalline form B
# [29] = relative humidity 90%, listed as Crystalline form B
# [30] = relative humidity 95%, listed as Crystalline form B
# [31] = 25 °C/92% RH, open container, 13 days
# [32] = 40 °C/75% RH, open container, 13 days
# [33] = 60 °C, sealed container, 13 days
# [34] = mouse, plasma, 25 mM citrate buffer (pH 3) containing 5% Tween 80
compound,measurement,setting,value
"O=C1CC[C@H](N2Cc3cc(C(=O)N[C@H](c4ccc(Cl)cn4)C4CCC4)ccc3C2=O)C(=O)N1 [crystalline form E, N-((S)-(5-chloropyridin-2-yl)(cyclobutyl)methyl)-2-((S)-2,6-dioxopiperidin-3-yl)-1-oxoisoindoline-5-carboxamide]",Initial purity (HPLC/SFC) Chemical purity,[1]; listed as Crystalline form E,99.3% See Figure 16a
same,Initial purity (HPLC/SFC) Chiral purity,[1]; listed as Crystalline form E,98.7% See Figure 16b
same,1st adsorption weight change percentage,[2]; [5],0.1%
same,1st desorption weight change percentage,[2]; [5],0.1%
same,1st adsorption weight change percentage,[2]; [6],0.3%
same,1st desorption weight change percentage,[2]; [6],0.3%
same,2nd adsorption weight change percentage,[2]; [6],0.3%
same,2nd desorption weight change percentage,[2]; [6],0.3%
same,1st adsorption weight change percentage,[2]; [7],1.3%
same,1st desorption weight change percentage,[2]; [7],1.3%
same,2nd adsorption weight change percentage,[2]; [7],1.3%
same,2nd desorption weight change percentage,[2]; [7],1.3%
same,1st adsorption weight change percentage,[2]; [8],1.6%
same,1st desorption weight change percentage,[2]; [8],1.6%
same,2nd adsorption weight change percentage,[2]; [8],1.6%
same,2nd desorption weight change percentage,[2]; [8],1.6%
same,1st adsorption weight change percentage,[2]; [9],2.0%
same,1st desorption weight change percentage,[2]; [9],2.0%
same,2nd adsorption weight change percentage,[2]; [9],2.0%
same,2nd desorption weight change percentage,[2]; [9],2.0%
same,1st adsorption weight change percentage,[2]; [10],2.7%
same,2nd desorption weight change percentage,[2]; [10],2.8%
same,1st adsorption weight change percentage,[2]; [11],3.1%
same,2nd desorption weight change percentage,[2]; [11],3.3%
same,1st adsorption weight change percentage,[2]; [12],3.5%
same,2nd desorption weight change percentage,[2]; [12],3.5%
same,1st adsorption weight change percentage,[2]; [13],3.6%
same,2nd desorption weight change percentage,[2]; [13],3.6%
same,1st adsorption weight change percentage,[2]; [14],3.8%
same,2nd desorption weight change percentage,[2]; [14],3.8%
same,1st adsorption weight change percentage,[2]; [15],4.0%
same,2nd desorption weight change percentage,[2]; [15],4.0%
same,XRPD after DVS test,[2]; listed as Crystalline form E,"The crystal form did not change, see Figure 19b"
same,moisture adsorbed (DVS),"[2]; under 40%RH-95%RH, listed as Crystalline form E","2.0% of moisture was adsorbed under 40%RH-95%RH, see Figure 19a"
same,Color,"[3]; 25 °C/92% RH, open container, 1 week",No color change
same,Chemical purity,[3]; [16],98.3% See Figure 16c
same,Chiral purity,[3]; [16],98.6% See Figure 16d
same,Solid (XRPD),[3]; [16],"The crystal form did not change, see Figure 16e"
same,Color,"[3]; 40 °C/75% RH, open container, 1 week",No color change
same,Chemical purity,[3]; [17],98.6% See Figure 16f
same,Chiral purity,[3]; [17],98.6% See Figure 16g
same,Solid (XRPD),[3]; [17],"The crystal form did not change, see Figure 16e"
same,Color,"[3]; 60 °C, sealed container, 1 week",No color change
same,Chemical purity,[3]; [18],98.8% See Figure 16h
same,Chiral purity,[3]; [18],98.7% See Figure 16i
same,Solid (XRPD),[3]; [18],"The crystal form did not change, see Figure 16e"
"O=C1CC[C@H](N2Cc3cc(C(=O)N[C@H](c4ccc(Cl)cn4)C4CCC4)ccc3C2=O)C(=O)N1 [crystalline form B, N-((S)-(5-chloropyridin-2-yl)(cyclobutyl)methyl)-2-((S)-2,6-dioxopiperidin-3-yl)-1-oxoisoindoline-5-carboxamide]",Chemical purity,"[1]; Solid, 25 °C/92% RH, open container, 13 days, HPLC/SFC",99.2% See Figure 15c
same,Color,[1]; [19],No color change
same,Solid (XRPD),[1]; [19],"The crystal form did not change, see Figure 15e"
same,Initial purity (HPLC/SFC) Chemical purity,[1]; listed as Crystalline form B,99.5% See Figure 15a
same,Initial purity (HPLC/SFC) Chiral purity,[1]; listed as Crystalline form B,99.0% See Figure 15b
same,2nd adsorption weight change percentage,[2]; relative humidity 0%,0.0%
same,2nd desorption weight change percentage,[2]; relative humidity 0%,0.0%
same,1st adsorption weight change percentage,[2]; [20],1.6%
same,1st desorption weight change percentage,[2]; [20],1.6%
same,1st adsorption weight change percentage,[2]; [21],2.0%
same,1st desorption weight change percentage,[2]; [21],2.0%
same,2nd adsorption weight change percentage,[2]; [21],0.4%
same,2nd desorption weight change percentage,[2]; [21],0.4%
same,1st adsorption weight change percentage,[2]; [22],2.7%
same,1st desorption weight change percentage,[2]; [22],2.7%
same,2nd adsorption weight change percentage,[2]; [22],1.1%
same,2nd desorption weight change percentage,[2]; [22],1.1%
same,1st adsorption weight change percentage,[2]; [23],3.2%
same,1st desorption weight change percentage,[2]; [23],3.3%
same,2nd adsorption weight change percentage,[2]; [23],1.7%
same,2nd desorption weight change percentage,[2]; [23],1.7%
same,1st adsorption weight change percentage,[2]; [24],3.7%
same,1st desorption weight change percentage,[2]; [24],3.8%
same,2nd adsorption weight change percentage,[2]; [24],2.2%
same,2nd desorption weight change percentage,[2]; [24],2.3%
same,1st adsorption weight change percentage,[2]; [25],4.5%
same,2nd desorption weight change percentage,[2]; [25],3.3%
same,1st adsorption weight change percentage,[2]; [26],5.0%
same,2nd desorption weight change percentage,[2]; [26],3.9%
same,1st adsorption weight change percentage,[2]; [27],5.4%
same,2nd desorption weight change percentage,[2]; [27],5.4%
same,1st adsorption weight change percentage,[2]; [28],5.9%
same,2nd desorption weight change percentage,[2]; [28],5.9%
same,1st adsorption weight change percentage,[2]; [29],6.9%
same,2nd desorption weight change percentage,[2]; [29],7.3%
same,1st adsorption weight change percentage,[2]; [30],9.2%
same,2nd desorption weight change percentage,[2]; [30],9.2%
same,XRPD after DVS test,[2]; listed as Crystalline form B,"The crystal form did not change, see Figure 18b"
same,stability (crystal form),"[2]; hygroscopic tests of Table 17, Table 18 and Table 19, DVS 25 °C, 40-0-95-0-40% RH",the crystal form did not change
same,moisture adsorbed (DVS),[2]; under 40%RH-80%RH,2.2%
same,moisture adsorbed (DVS),"[2]; under 40%RH-95%RH, listed as Crystalline form B",5.5%
same,Color,[3]; [31],No color change
same,Solid (XRPD),[3]; [31],"The crystal form did not change, see Figure 15e"
same,Chiral purity,[3]; [31],98.8% See Figure 15d
same,Chemical purity,[3]; [32],97.9% See Figure 15f
same,Chiral purity,[3]; [32],98.8% See Figure 15g
same,Color,[3]; [33],No color change
same,Solid (XRPD),[3]; [33],"The crystal form did not change, see Figure 15e"
same,Chemical purity,[3]; [33],97.8% See Figure 15h
same,Chiral purity,[3]; [33],98.9% See Figure 15i
same,stability (crystal form),"[3]; stability tests of Table 14, Table 15 and Table 16, 25°C/92% RH, 40°C/75% RH, 60°C, 13 days",the crystal form did not change
O=C1CC[C@H](N2Cc3cc(C(=O)N[C@H](c4ccc(Cl)cn4)C4CCC4)ccc3C2=O)C(=O)N1 [Amorphous],AUClast /D,"[4]; 25 mM citrate buffer (pH 3) containing 5% Tween 80, dose-normalised",1178 ± 116
same,AUC(0-inf),[4]; [34],35900 ± 3760 ng·h/mL
same,AUC(0-t),[4]; [34],35300 ± 3480 ng·h/mL
same,Cmax,[4]; [34],17800 ± 3130 ng/mL
same,Tmax,[4]; [34],0.42 h
same,half-life,[4]; [34],3.1 h
